# Read-outs that look alike come from different tables or passages of the source.
# Experiments:
# A. baumannii A387 [1] = experiment: MIC without and with sub-inhibitory polymyxin B (Example 4); assay type: cell-based, Acinetobacter baumannii; conditions: for MIC without PB/MIC + PB: A. baumannii A387; for MIC: Acinetobacter baumannii
# [2] = test system: Acinetobacter sp. (H064200250); experiment: as above; assay type: cell-based
# A. baumannii ATCC 19606 [3] = experiment: Preliminary MBC without and with sub-inhibitory polymyxin B (Example 4); assay type: cell-based, Acinetobacter baumannii; conditions: Acinetobacter baumannii
# A. baumannii A390 [4] = experiment: MIC without and with sub-inhibitory polymyxin B (Example 4); assay type: cell-based, Acinetobacter baumannii; conditions: +0.06 μg/ml PB, 2nd experiment
# A. baumannii A14 [5] = experiment: as above; assay type: cell-based, Acinetobacter baumannii; conditions: 2nd experiment; for MIC: Acinetobacter baumannii, A14, A. baumannii A14, read-out: MIC
# A. baumannii A14 [6] = experiment: as above; assay type: cell-based, Acinetobacter baumannii; conditions: 1st experiment
# [7] = test system: strains of A. baumannii and one strain of Acinetobacter sp.; experiment: MIC with sub-inhibitory concentrations (0.25x MIC) of polymyxin B, panel of Acinetobacter strains (Example 4); assay type: cell-based
# A. baumannii A14 [8] = experiment: Preliminary MBC without and with sub-inhibitory polymyxin B (Example 4); assay type: cell-based, Acinetobacter baumannii; conditions: A. baumannii A14, preliminary MBC, 1st experiment
# A. baumannii A489 = experiment: MIC without and with sub-inhibitory polymyxin B (Example 4); assay type: cell-based, Acinetobacter baumannii; conditions: for MIC without PB/MIC + PB: A. baumannii A489; for MIC: Acinetobacter baumannii
# A. baumannii A472 [9] = experiment: Preliminary MBC without and with sub-inhibitory polymyxin B (Example 4); assay type: cell-based, Acinetobacter baumannii; conditions: Acinetobacter baumannii, A472, read-out: MBC +[…] PB, A. baumannii A472; +[…] polymyxin B; preliminary MBC; 1st experiment
# A. baumannii A472 [10] = experiment: MIC without and with sub-inhibitory polymyxin B (Example 4); assay type: cell-based, Acinetobacter baumannii; conditions: 1st experiment
# A. baumannii NCTC 13301 [11] = experiment: as above; assay type: cell-based, Acinetobacter baumannii
# A. baumannii J2 = experiment: as above; assay type: cell-based, Acinetobacter baumannii; conditions: for MIC without PB/MIC + PB: A. baumannii J2
# A. baumannii A401 [12] = experiment: as above; assay type: cell-based, Acinetobacter baumannii; conditions: for MIC: Acinetobacter baumannii
# A. baumannii A473 [13] = experiment: as above; assay type: cell-based, Acinetobacter baumannii; conditions: +0.06 μg/ml PB, 2nd experiment
# A. baumannii ATCC 19606 [14] = experiment: as above; assay type: cell-based, Acinetobacter baumannii; conditions: for MIC without PB/MIC + PB: A. baumannii ATCC 19606; for MIC: Acinetobacter baumannii
# A. baumannii A387 [15] = experiment: Preliminary MBC without and with sub-inhibitory polymyxin B (Example 4); assay type: cell-based, Acinetobacter baumannii; conditions: Acinetobacter baumannii
# A. baumannii NCTC 13301 [16] = experiment: as above; assay type: cell-based, Acinetobacter baumannii; conditions: Acinetobacter baumannii
# How it was run: (§1)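 Read-out: the minimum concentration at which colonies were reduced by ca. 90% relative to positive control, usually seen as isolated colonies or a clear plate. Plates had been kept 18-20 hours at 37° C beforehand.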
# A. baumannii A390 [17] = experiment: as above; assay type: cell-based, Acinetobacter baumannii; conditions: Acinetobacter baumannii, A390, A. baumannii A390, +0.06 μg/ml PB, 2nd experiment, read-out: MBC
# How it was run: as §1
# A. baumannii A473 [18] = experiment: as above; assay type: cell-based, Acinetobacter baumannii; conditions: Acinetobacter baumannii, A473, A. baumannii A473, +0.06 μg/ml PB, 2nd experiment, read-out: MBC
# How it was run: as §1
# A. baumannii A14 [19] = experiment: as above; assay type: cell-based, Acinetobacter baumannii; conditions: Acinetobacter baumannii, 2nd experiment, read-out: MBC
# How it was run: as §1
# A. baumannii A329 = experiment: MIC without and with sub-inhibitory polymyxin B (Example 4); assay type: cell-based, Acinetobacter baumannii; conditions: +0.06 μg/ml PB, 2nd experiment
# A. baumannii A401 [20] = experiment: Preliminary MBC without and with sub-inhibitory polymyxin B (Example 4); assay type: cell-based, Acinetobacter baumannii; conditions: Acinetobacter baumannii
# A. baumannii NCTC 13301 [21] = experiment: MIC without and with sub-inhibitory polymyxin B (Example 4); assay type: cell-based, Acinetobacter baumannii; conditions: A. baumannii NCTC 13301; +[…] PB; 2nd experiment
# [22] = ratio, PB 0.06 μg/ml, 1st experiment
smiles,measurement,setting,value
"Cc1c(-c2ccc(N)c(F)c2)ccn2c(=O)c(C(=O)O)cc(C3CC3)c12 [Compound 1, 8-(3-fluoro-4-amino-phenyl)-1-cyclopropyl-9-methyl-4-oxo-quinolizine-3-carboxylic acid]",MIC without PB/MIC + PB,"A. baumannii A387 [1]; +0.06 μg/ml PB, 2nd experiment",≥128
same,MIC without PB/MIC + PB,A. baumannii A387 [1]; [22],≥32
same,MIC,"A. baumannii A387 [1]; A387, A. baumannii A387, +0.06 μg/ml PB, 2nd experiment, read-out: MIC",≤ 0.03 µg/mL
same,MIC,"A. baumannii A387 [1]; A387, read-out: MIC +0.06 μg/ml PB, A. baumannii A387, +0.06 μg/ml polymyxin B, 1st experiment",≤ 0.03 µg/mL
same,MIC without PB/MIC + PB,"[2]; Acinetobacter spp. H064200250 (OXA51), +[…] PB, 2nd experiment",≥512
same,MIC without PB/MIC + PB,"[2]; Acinetobacter spp. H064200250, ratio, PB […], 1st experiment",≥256
same,MIC,"[2]; Acinetobacter, read-out: MIC +[…] PB, Acinetobacter spp. H064200250, +[…] polymyxin B, 1st experiment",≤ 0.03 µg/mL
same,MBC,"A. baumannii ATCC 19606 [3]; ATCC19606, A. baumannii ATCC 19606, +0.06 μg/ml PB, 2nd experiment, read-out: MBC",≤ 0.03 µg/mL
same,MBC,"A. baumannii ATCC 19606 [3]; ATCC19606, read-out: MBC +0.06 μg/ml PB, A. baumannii ATCC 19606, +0.06 μg/ml polymyxin B, 1st experiment",≤ 0.03 µg/mL
same,MIC without PB/MIC + PB,A. baumannii A390 [4]; A. baumannii A390,≥512
same,MIC,"A. baumannii A390 [4]; Acinetobacter baumannii, A390, A. baumannii A390, read-out: MIC",≤ 0.03 µg/mL
same,MIC without PB/MIC + PB,"A. baumannii A14 [5]; A. baumannii A14, +0.06 μg/ml PB",512
same,MIC,A. baumannii A14 [5]; +0.06 μg/ml PB,0.06 µg/mL
same,MIC,A. baumannii A14 [5]; without PB,32 µg/mL
same,MIC +0.06 μg/ml PB,A. baumannii A14 [6]; +0.06 μg/ml polymyxin B,0.06 µg/mL
same,MIC,"A. baumannii A14 [6]; Acinetobacter baumannii, 24 h, without polymyxin B, read-out: MIC without PB",32 µg/mL
same,MIC without PB/MIC + PB,"A. baumannii A14 [6]; ratio, PB 0.06 μg/ml",512
same,"MIC range with PB (0.25x MIC) Oct. 1, 2008 n = 8","[7]; 1st experiment, […] polymyxin B, ATCC 19606, A329, A390 and A473 not taken",≤0.03 to 0.06 µg/mL
same,"MIC range with PB (0.25x MIC) Oct. 14, 2008 n = 11","[7]; 2nd experiment, 0.06 μg/ml polymyxin B, all strains except the ATCC strain",≤0.03 to 2 µg/mL
same,MBC +0.06 μg/ml PB,A. baumannii A14 [8]; +0.06 μg/ml polymyxin B,0.06 µg/mL
same,MBC,"A. baumannii A14 [8]; Acinetobacter baumannii, without polymyxin B, read-out: MBC without PB",32 µg/mL
same,MIC without PB/MIC + PB,"A. baumannii A489; +[…] PB, 2nd experiment",≥512
same,MIC without PB/MIC + PB,"A. baumannii A489; ratio, PB […], 1st experiment",≥128
same,MIC,"A. baumannii A489; A489, A. baumannii A489, +[…] PB, 2nd experiment, read-out: MIC",≤ 0.03 µg/mL
same,MIC,"A. baumannii A489; A489, read-out: MIC +[…] PB, A. baumannii A489, +[…] polymyxin B, 1st experiment",≤ 0.03 µg/mL
same,MBC,A. baumannii A472 [9],≤ 0.03 µg/mL
same,MIC without PB/MIC + PB,"A. baumannii A472 [10]; A. baumannii A472, ratio, PB […]",≥256
same,MIC,"A. baumannii A472 [10]; Acinetobacter baumannii, A472, read-out: MIC +[…] PB, A. baumannii A472, +[…] polymyxin B",≤ 0.03 µg/mL
same,MIC without PB/MIC + PB,"A. baumannii NCTC 13301 [11]; A. baumannii NCTC 13301, ratio, PB […], 1st experiment",≥1024
same,MIC,"A. baumannii NCTC 13301 [11]; Acinetobacter baumannii, NCTC13301, read-out: MIC +[…] PB",≤ 0.03 µg/mL
same,MIC without PB/MIC + PB,"A. baumannii J2; +[…] PB, 2nd experiment",≥512
same,MIC without PB/MIC + PB,"A. baumannii J2; ratio, PB […], 1st experiment",≥256
same,MIC,"A. baumannii J2; Acinetobacter baumannii, J2, read-out: MIC +[…] PB, A. baumannii J2, +[…] polymyxin B, 1st experiment",≤ 0.03 µg/mL
same,MIC without PB/MIC + PB,"A. baumannii A401 [12]; A baumannii A 401, ratio, PB 0.06 μg/ml, 1st experiment",≥128
same,MIC,"A. baumannii A401 [12]; A401, A baumannii A 401, +0.06 μg/ml PB, 2nd experiment, read-out: MIC",≤ 0.03 µg/mL
same,MIC,"A. baumannii A401 [12]; A401, read-out: MIC +0.06 μg/ml PB, A baumannii A 401, +0.06 μg/ml polymyxin B, 1st experiment",≤ 0.03 µg/mL
same,MIC without PB/MIC + PB,A. baumannii A473 [13]; A. baumannii A473,8
same,MIC,"A. baumannii A473 [13]; Acinetobacter baumannii, A473, A. baumannii A473, read-out: MIC",1 µg/mL
same,MIC without PB/MIC + PB,"A. baumannii ATCC 19606 [14]; +0.06 μg/ml PB, 2nd experiment",≥8
same,MIC without PB/MIC + PB,A. baumannii ATCC 19606 [14]; [22],≥8
same,MIC,"A. baumannii ATCC 19606 [14]; ATCC19606, A. baumannii ATCC 19606, +0.06 μg/ml PB, 2nd experiment, read-out: MIC",≤ 0.03 µg/mL
same,MIC,"A. baumannii ATCC 19606 [14]; ATCC19606, read-out: MIC +0.06 μg/ml PB, A. baumannii ATCC 19606, +0.06 μg/ml polymyxin B, 1st experiment",≤ 0.03 µg/mL
same,MBC,"A. baumannii A387 [15]; A387, A. baumannii A387, +0.06 μg/ml PB, 2nd experiment, read-out: MBC",≤ 0.03 µg/mL
same,MBC,"A. baumannii A387 [15]; A387, read-out: MBC +0.06 μg/ml PB, A. baumannii A387, +0.06 μg/ml polymyxin B, 1st experiment",≤ 0.03 µg/mL
same,MBC,A. baumannii NCTC 13301 [16]; NCTC13301,≤ 0.03 µg/mL
same,MBC,"A. baumannii NCTC 13301 [16]; NCTC13301, read-out: MBC +[…] PB",0.06 µg/mL
same,MBC,A. baumannii A390 [17],≤ 0.03 µg/mL
same,MBC,A. baumannii A473 [18],1 µg/mL
same,MBC,"A. baumannii A14 [19]; A14, A. baumannii A14, +0.06 μg/ml PB",0.06 µg/mL
same,MBC,"A. baumannii A14 [19]; A14, A. baumannii A14, without PB",32 µg/mL
same,MIC without PB/MIC + PB,A. baumannii A329; A. baumannii A329,8
same,MIC,"A. baumannii A329; Acinetobacter baumannii, A329, A. baumannii A329, read-out: MIC",2 µg/mL
same,MBC,"A. baumannii A401 [20]; A401, A baumannii A 401, +0.06 μg/ml PB, 2nd experiment, read-out: MBC",≤ 0.03 µg/mL
same,MBC,"A. baumannii A401 [20]; A401, read-out: MBC +0.06 μg/ml PB, A baumannii A 401, +0.06 μg/ml polymyxin B, 1st experiment",≤ 0.03 µg/mL
same,MIC without PB/MIC + PB,A. baumannii NCTC 13301 [21],≥1024
